Source: patent US20250320401A1, “CORROSION INHIBITOR AND RELATED METHODS OF INHIBITING THE CORROSION OF METAL SURFACES” (Schlumberger Technology Corporation, priority 2024, published 2025)

Legend:
[1] = Corrosion rate by weight loss analysis of steel coupons in inhibited hydrochloric acid; conditions: 3.57 mmol, 80° C.
From the text: The corrosion rates were studied by weight loss analysis. The low carbon steel HS80 tubing were cut into coupons of 29±3 cm^2 surface area using a water cooled band saw to minimize any changes in the properties of the metal that may result from heating. After cutting, the coupons were stamped for identification, glass bead blasted and cleaned in acetone to remove any residue from the machining process. The coupons were then dried, placed in plastic bags and stored in airtight jars to prevent contact with humidity or airborne contaminants. The initial surface area of each test coupon was determined by accurate (to four decimal places) measurement of its geometric dimensions.
Throughout the exposure period, isothermal conditions are maintained (for the present study, the temperature was maintained at 80° C.) and the inhibited acid is continuously stirred using a magnetic stirrer bar. Since the tests were designed to simulate oil well acid stimulation, no effort was made to remove dissolved oxygen from the acid. However, an argon blanket was used to stop any additional intrusion of oxygen during the one hour exposure period. Following each test, the coupons were rinsed in acetone and scrubbed with soap and water to remove residual inhibitor and corrosion deposits. […]

Listeria monocytogenes = conditions: in meat products, milk and cottage cheese; cited from earlier work
Escherichia coli = conditions: in meat products, milk and cottage cheese; cited from earlier work
[2] = cited from earlier work
mice [3] = assay: Acute toxicity, intraperitoneal LD50 in mice; assay type: in vivo; conditions: relative to reuterin
From the text: (§1) Biotechnologically produced 3-HPA and the 3-HPA derivatives, such as the cyclic dimeric form of FIG. 2 and others described herein, have a high potential as a food preservative and within health care. […] See Fernandez-Cruz M. L, Martín-Cabrejas I., Palacio J. P., Gaya P., Díaz-Navarro C., Navas J. M., Medina M., Arques J. L., “In vitro toxicity of reuterin, a potential food biopreservative,” Food and Chemical Toxicology 96, 2016, 155-159. In contrast for acrolein, the median intraperitoneal (i.p.) lethal dose 50 (LD50) was estimated to be 7 mg/kg by weight (bw) for mice. The acute toxicity of diacetyl after i.p. exposure in rats is low (525 mg/kg bw). […] The acute toxicity LD50 oral for propargyl alcohol is 20 mg/kg for rats. See Propargyl alcohol, MSDS, Aldrich-Sigma. Overall, the typical polymerizable corrosion inhibitors, i.e. acrolein and propargyl alcohol are 36 and 12 times respectively more toxic than reuterin.

mice [4] = conditions: cited from earlier work
rats [5] = assay: Acute toxicity, oral LD50 in rats; assay type: in vivo; conditions: relative to reuterin
From the text: as §1

rats [6] = conditions: cited from earlier work
rats [7] = conditions: cited from earlier work; remark: listed apart in the source

O=CCCO [3-HPA, 3-Hydroxypropionaldehyde]
inhibition efficiency ([1]; 4M HCl): 89%
inhibition efficiency ([1]; 28% HCl (so in the source)): 97%
growth inhibition (Listeria monocytogenes): inhibit the growth
growth inhibition (Escherichia coli): inhibit the growth
i.p. LD50 ([2]; i.p.): approximately 250 mg/kg bw
toxicity relative to diacetyl ([2]; relative to diacetyl): two times more toxic than diacetyl

C=CC=O [Acrolein]
times more toxic than reuterin (mice [3]): 36 times
median intraperitoneal (i.p.) lethal dose 50 (LD50) (mice [4]): 7 mg/kg by weight (bw)

C#CCO [Propargyl alcohol]
times more toxic than reuterin (rats [5]): 12 times
acute toxicity LD50 oral (rats [6]): 20 mg/kg

CC(=O)C(C)=O [diacetyl]
acute toxicity after i.p. exposure (rats [7]): 525 mg/kg bw
